From PubChem BioAssay AID328 (DTP/NCI, 2004)
Toxic doses and inconclusive results are not listed.

Test system: BDF1 mice, P388 leukemia ip, median survival T/C
Assay: NCI In Vivo Anticancer Drug Screen. Data for tumor model P388 Leukemia (intraperitoneal) in B6D2F1 (BDF1) mice
Settings: endpoint: median survival time, higher = longer survival
Outline: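 T/C = treated-group survival ÷ vehicle-control survival; tumour transplanted into mice before dosing.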

[1] = dose: 50.0 mg/kg/injection, schedule: Q04DX003 (ip), vehicle: saline with Tween-80
[2] = dose: 100.0 mg/kg/injection, schedule: Q04DX003 (ip), vehicle: saline with Tween-80
[3] = dose: 200.0 mg/kg/injection, schedule: Q04DX003 (ip), vehicle: saline with Tween-80
[4] = dose: 25.0 mg/kg/injection, schedule: Q01DX009 (ip), vehicle: saline with Tween-80
[5] = dose: 50.0 mg/kg/injection, schedule: Q01DX009 (ip), vehicle: saline with Tween-80
[6] = dose: 100.0 mg/kg/injection, schedule: Q01DX009 (ip), vehicle: saline with Tween-80
[7] = dose: 3.13 mg/kg/injection, schedule: Q01DX009 (ip), vehicle: saline with Tween-80
[8] = dose: 6.25 mg/kg/injection, schedule: Q01DX009 (ip), vehicle: saline with Tween-80
[9] = dose: 12.5 mg/kg/injection, schedule: Q01DX009 (ip), vehicle: saline with Tween-80

In the case of `O=C(OCC1OC(n2cnc3c(=O)[nH]c(=O)[nH]c32)C(OC(=O)c2ccccc2)C1OC(=O)c1ccccc1)c1ccccc1` (stereo not drawn), the T/C (dose: 50.0 mg/kg/injection, schedule: Q01DX010 (ip), vehicle: saline with Tween-80) is reported as 100 % of control, the T/C (dose: 100.0 mg/kg/injection, schedule: Q01DX010 (ip), vehicle: saline with Tween-80) is reported as 90 % of control and the T/C (dose: 200.0 mg/kg/injection, schedule: Q01DX010 (ip), vehicle: saline with Tween-80) is reported as 90 % of control. For the same compound, the T/C (dose: 400.0 mg/kg/injection, schedule: Q01DX010 (ip), vehicle: saline with Tween-80) was 90 % of control.
In the case of `O=C(Nc1ccc2c(c1)OCO2)O/N=C\c1cccnc1`, the T/C [1] is reported as 100 % of control, the T/C [2] is reported as 109 % of control and the T/C [3] is reported as 109 % of control.
`COc1cc2c(cc1O)C(=O)CCC(C(=O)O)=C2` was tested, and the T/C [4] was 106 % of control, the T/C [5] was 111 % of control and the T/C [6] was 101 % of control.
`COC1CCC(OC2C(C)C(O)(C(C)C(=O)O)OC(CC3CC(OC)C(C)C4(O3)OC(C)(C3CCC(C5CCC(C6OC(C)(O)C(C)C(OC)C6C)O5)O3)C(OC)C4C)C2(C)OC)OC1C` (stereo not drawn) was tested, and the T/C (dose: 0.62 mg/kg/injection, schedule: Q01DX009 (ip), vehicle: saline) was 94 % of control and the T/C (dose: 1.25 mg/kg/injection, schedule: Q01DX009 (ip), vehicle: saline) was 96 % of control.
With `Cc1cccc(C)c1NC(=S)N(C)C` the T/C [7] was 100 % of control, the T/C [8] was 100 % of control and the T/C (dose: 12.0 mg/kg/injection, schedule: Q01DX001 (ip), vehicle: Klucel (hydroxypropylcellulose) (HPC)) was 109 % of control. For the same compound, the T/C [9] was 95 % of control, the T/C (dose: 25.0 mg/kg/injection, schedule: Q01DX001 (ip), vehicle: Klucel (hydroxypropylcellulose) (HPC)) was 100 % of control and the T/C (dose: 50.0 mg/kg/injection, schedule: Q01DX001 (ip), vehicle: Klucel (hydroxypropylcellulose) (HPC)) was 100 % of control. The T/C (dose: 100.0 mg/kg/injection, schedule: Q04DX003 (ip), vehicle: saline) was 100 % of control.
In the case of `Cc1ccc(N2C=Nc3ccc(C)cc3C2)cc1`, the T/C (dose: 10.0 mg/kg/injection, schedule: Q01DX009 (ip), vehicle: Klucel (hydroxypropylcellulose) (HPC)) is reported as 100 % of control, the T/C (dose: 15.0 mg/kg/injection, schedule: Q01DX009 (ip), vehicle: Klucel (hydroxypropylcellulose) (HPC)) is reported as 100 % of control and the T/C (dose: 25.0 mg/kg/injection, schedule: Q01DX009 (ip), vehicle: Klucel (hydroxypropylcellulose) (HPC)) is reported as 90 % of control. The T/C (dose: 40.0 mg/kg/injection, schedule: Q01DX009 (ip), vehicle: Klucel (hydroxypropylcellulose) (HPC)) was 100 % of control, the T/C (dose: 50.0 mg/kg/injection, schedule: Q01DX009 (ip), vehicle: Klucel (hydroxypropylcellulose) (HPC)) was 118 % of control and the T/C (dose: 100.0 mg/kg/injection, schedule: Q01DX009 (ip), vehicle: Klucel (hydroxypropylcellulose) (HPC)) was 109 % of control. For the same compound, the T/C (dose: 100.0 mg/kg/injection, schedule: Q04DX003 (ip), vehicle: other) was 109 % of control, the T/C (dose: 200.0 mg/kg/injection, schedule: Q01DX009 (ip), vehicle: Klucel (hydroxypropylcellulose) (HPC)) was 90 % of control and the T/C (dose: 200.0 mg/kg/injection, schedule: Q04DX003 (ip), vehicle: other) was 104 % of control.
In the case of `COC(=O)C12OCC34C(CC5C(C)=C(O)C(=O)CC5(C)C3C(O)C1O)OC(=O)C(OC(=O)/C=C(\C)C(C)(C)O)C24` (stereo not drawn), the T/C (dose: 0.2 mg/kg/injection, schedule: Q01DX009 (ip), vehicle: saline) is reported as 165 % of control, the T/C (dose: 0.4 mg/kg/injection, schedule: Q01DX009 (ip), vehicle: saline) is reported as 165 % of control and the T/C (dose: 0.8 mg/kg/injection, schedule: Q01DX009 (ip), vehicle: saline) is reported as 163 % of control. For the same compound, the T/C (dose: 60.0 micrograms/kg/injection, schedule: Q01DX009 (ip), vehicle: saline + alcohol) was 183 % of control, the T/C (dose: 120.0 micrograms/kg/injection, schedule: Q01DX009 (ip), vehicle: saline + alcohol) was 183 % of control and the T/C (dose: 250.0 micrograms/kg/injection, schedule: Q01DX009 (ip), vehicle: saline + alcohol) was 200 % of control. For the same compound, the T/C (dose: 500.0 micrograms/kg/injection, schedule: Q01DX009 (ip), vehicle: saline + alcohol) was 211 % of control, the T/C (dose: 1000.0 micrograms/kg/injection, schedule: Q01DX009 (ip), vehicle: saline + alcohol) was 238 % of control and the T/C (dose: 2000.0 micrograms/kg/injection, schedule: Q01DX009 (ip), vehicle: saline + alcohol) was 194 % of control.
`c1ccc2c(c1)ccc1cc3cc(NCCCCNc4ccc5nc6c(ccc7ccccc76)cc5c4)ccc3nc12` was tested, and the T/C (dose: 1.56 mg/kg/injection, schedule: Q01DX009 (ip), vehicle: saline with Tween-80) was 108 % of control, the T/C [7] was 105 % of control and the T/C [8] was 108 % of control.
`NC(Cc1ccccc1Cl)C(=O)O` (stereo not drawn) was tested, and the T/C [9] was 86 % of control, the T/C [4] was 101 % of control and the T/C (dose: 25.0 mg/kg/injection, schedule: Q01DX009 (ip), vehicle: saline) was 122 % of control. The T/C [5] was 107 % of control, the T/C (dose: 50.0 mg/kg/injection, schedule: Q01DX009 (ip), vehicle: saline) was 116 % of control and the T/C [6] was 102 % of control. The T/C (dose: 200.0 mg/kg/injection, schedule: Q01DX009 (ip), vehicle: saline with Tween-80) was 94 % of control.
With `C=C(C)c1cc2c(cc1O)OCC2C` (stereo not drawn) the T/C (dose: 100.0 mg/kg/injection, schedule: Q04DX003 (ip), vehicle: Klucel (hydroxypropylcellulose) (HPC)) was 92 % of control, the T/C (dose: 300.0 mg/kg/injection, schedule: Q01DX009 (ip), vehicle: Klucel (hydroxypropylcellulose) (HPC)) was 90 % of control and the T/C (dose: 400.0 mg/kg/injection, schedule: Q04DX003 (ip), vehicle: Klucel (hydroxypropylcellulose) (HPC)) was 92 % of control.
In the case of `C1OCC2[CH2][Hg][S][Hg][CH2]C1O2`, the T/C (dose: 1.25 mg/kg/injection, schedule: Q01DX010 (ip), vehicle: saline) is reported as 109 % of control, the T/C (dose: 2.5 mg/kg/injection, schedule: Q01DX010 (ip), vehicle: saline) is reported as 104 % of control and the T/C (dose: 5.0 mg/kg/injection, schedule: Q01DX010 (ip), vehicle: saline) is reported as 109 % of control. For the same compound, the T/C (dose: 10.0 mg/kg/injection, schedule: Q01DX010 (ip), vehicle: saline) was 122 % of control.
`CCCCC(=O)N/N=C(\C)[C@]1(O)Cc2c(O)c3c(c(O)c2[C@@H](OC2CC(N)C(O)C(C)O2)C1)C(=O)c1c(OC)cccc1C3=O` (stereo partly drawn) was tested, and the T/C (dose: 0.78 mg/kg/injection, schedule: Q01DX009 (ip), vehicle: saline) was 109 % of control, the T/C (dose: 1.56 mg/kg/injection, schedule: Q01DX009 (ip), vehicle: saline) was 109 % of control and the T/C (dose: 1.56 mg/kg/injection, schedule: Q01DX009 (ip), vehicle: water) was 157 % of control. For the same compound, the T/C (dose: 3.12 mg/kg/injection, schedule: Q01DX009 (ip), vehicle: saline) was 122 % of control, the T/C (dose: 3.12 mg/kg/injection, schedule: Q01DX009 (ip), vehicle: water) was 172 % of control and the T/C (dose: 6.25 mg/kg/injection, schedule: Q01DX009 (ip), vehicle: saline) was 178 % of control.
In the case of `O=C(O)CNC(=O)Nc1ccccc1`, the T/C (dose: 25.0 mg/kg/injection, schedule: Q04DX003 (ip), vehicle: saline with Tween-80) is reported as 91 % of control, the T/C [1] is reported as 100 % of control and the T/C [2] is reported as 100 % of control. The T/C [3] was 87 % of control and the T/C (dose: 400.0 mg/kg/injection, schedule: Q04DX003 (ip), vehicle: saline with Tween-80) was 104 % of control.
In the case of `CS(=O)(=O)OCCN(CCOS(C)(=O)=O)c1cccc(Cl)c1`, the T/C (dose: 1.0 mg/kg/injection, schedule: Q04DX003 (ip), vehicle: saline with Tween-80) is reported as 100 % of control, the T/C (dose: 2.0 mg/kg/injection, schedule: Q04DX003 (ip), vehicle: saline with Tween-80) is reported as 100 % of control and the T/C (dose: 4.0 mg/kg/injection, schedule: Q04DX003 (ip), vehicle: saline with Tween-80) is reported as 172 % of control. For the same compound, the T/C (dose: 6.25 mg/kg/injection, schedule: Q01DX009 (ip), vehicle: other) was 163 % of control, the T/C (dose: 6.25 mg/kg/injection, schedule: Q04DX003 (ip), vehicle: saline) was 110 % of control and the T/C (dose: 8.0 mg/kg/injection, schedule: Q04DX003 (ip), vehicle: saline with Tween-80) was 177 % of control. The T/C (dose: 12.5 mg/kg/injection, schedule: Q01DX009 (ip), vehicle: Klucel (hydroxypropylcellulose) (HPC)) was 168 % of control, the T/C (dose: 12.5 mg/kg/injection, schedule: Q01DX009 (ip), vehicle: other) was 200 % of control and the T/C (dose: 18.7 mg/kg/injection, schedule: Q01DX009 (ip), vehicle: Klucel (hydroxypropylcellulose) (HPC)) was 186 % of control. The T/C (dose: 22.0 mg/kg/injection, schedule: Q04DX003 (ip), vehicle: other) was 240 % of control, the T/C (dose: 25.0 mg/kg/injection, schedule: Q01DX009 (ip), vehicle: other) was 95 % of control and the T/C (dose: 50.0 mg/kg/injection, schedule: Q04DX003 (ip), vehicle: other) was 90 % of control. For the same compound, the T/C (dose: 75.0 mg/kg/injection, schedule: Q04DX003 (ip), vehicle: other) was 90 % of control.
